From ChEMBL document CHEMBL1144106, “Highly oxygenated pseudopterane and cembranolide diterpenes from the Caribbean sea feather Pseudopterogorgia bipinnata” (1999)
The source made the active and inactive calls. The calls are words filed in the database; no cut-off is given here.

Key:
[1] = test system: Mycobacterium tuberculosis; experiment: Antituberculosis activity against Mycobacterium tuberculosis H37Rv at 12.5 ug/mL; type: functional, organism-based
CCRF-CEM = experiment: Cytotoxicity against human CCRF-CEM cells; type: functional

SMILES: C=C(C)[C@H]1C2=CC(C)=C(O2)[C@@H](O)[C@H](C(=C)C)CCC2=C[C@H]1OC2=O
- Activity [1]: inactive

SMILES: C=C(C)[C@H]1C(=O)[C@H]2O[C@@]2(C)C(=O)[C@@H](O)[C@H](C(=C)C)CCC2=C[C@H]1OC2=O
- Activity [1]: inactive

SMILES: C=C(C)[C@@H]1C[C@H]2O[C@](O)(C/C(C)=C\C(=O)/C=C(/C)C[C@@H]3OC(=O)[C@]24O[C@@H]34)[C@H]1O
- Activity [1]: inactive

SMILES: C=C(C)[C@@H]1CCC2=C[C@H](C/C(C)=C\C3=CC(C)=C(O3)[C@H]1O)OC2=O
- Activity [1]: inactive

SMILES: C=C(C(=O)OC)[C@@H]1C[C@@H](OC(C)=O)C2=C[C@H](C[C@@]3(C)O[C@@H]3C3=CC(C)=C(O3)[C@H]1OC(C)=O)OC2=O [BIPINNATIN I]
- GI50 (CCRF-CEM): 42.7 nM
